Data as given in ChEMBL document CHEMBL2073793, “An in vitro evaluation of human cytochrome P450 3A4 and P-glycoprotein inhibition by garlic” (J Pharm Pharm Sci, 2001).

Target: ATP-dependent translocase ABCB1 (Homo sapiens, UniProt P08183)
Assay: TP_TRANSPORTER: ATP hydrolysis GENTEST
Format: functional

Chain of ATP-dependent translocase ABCB1 (P08183 whole entry): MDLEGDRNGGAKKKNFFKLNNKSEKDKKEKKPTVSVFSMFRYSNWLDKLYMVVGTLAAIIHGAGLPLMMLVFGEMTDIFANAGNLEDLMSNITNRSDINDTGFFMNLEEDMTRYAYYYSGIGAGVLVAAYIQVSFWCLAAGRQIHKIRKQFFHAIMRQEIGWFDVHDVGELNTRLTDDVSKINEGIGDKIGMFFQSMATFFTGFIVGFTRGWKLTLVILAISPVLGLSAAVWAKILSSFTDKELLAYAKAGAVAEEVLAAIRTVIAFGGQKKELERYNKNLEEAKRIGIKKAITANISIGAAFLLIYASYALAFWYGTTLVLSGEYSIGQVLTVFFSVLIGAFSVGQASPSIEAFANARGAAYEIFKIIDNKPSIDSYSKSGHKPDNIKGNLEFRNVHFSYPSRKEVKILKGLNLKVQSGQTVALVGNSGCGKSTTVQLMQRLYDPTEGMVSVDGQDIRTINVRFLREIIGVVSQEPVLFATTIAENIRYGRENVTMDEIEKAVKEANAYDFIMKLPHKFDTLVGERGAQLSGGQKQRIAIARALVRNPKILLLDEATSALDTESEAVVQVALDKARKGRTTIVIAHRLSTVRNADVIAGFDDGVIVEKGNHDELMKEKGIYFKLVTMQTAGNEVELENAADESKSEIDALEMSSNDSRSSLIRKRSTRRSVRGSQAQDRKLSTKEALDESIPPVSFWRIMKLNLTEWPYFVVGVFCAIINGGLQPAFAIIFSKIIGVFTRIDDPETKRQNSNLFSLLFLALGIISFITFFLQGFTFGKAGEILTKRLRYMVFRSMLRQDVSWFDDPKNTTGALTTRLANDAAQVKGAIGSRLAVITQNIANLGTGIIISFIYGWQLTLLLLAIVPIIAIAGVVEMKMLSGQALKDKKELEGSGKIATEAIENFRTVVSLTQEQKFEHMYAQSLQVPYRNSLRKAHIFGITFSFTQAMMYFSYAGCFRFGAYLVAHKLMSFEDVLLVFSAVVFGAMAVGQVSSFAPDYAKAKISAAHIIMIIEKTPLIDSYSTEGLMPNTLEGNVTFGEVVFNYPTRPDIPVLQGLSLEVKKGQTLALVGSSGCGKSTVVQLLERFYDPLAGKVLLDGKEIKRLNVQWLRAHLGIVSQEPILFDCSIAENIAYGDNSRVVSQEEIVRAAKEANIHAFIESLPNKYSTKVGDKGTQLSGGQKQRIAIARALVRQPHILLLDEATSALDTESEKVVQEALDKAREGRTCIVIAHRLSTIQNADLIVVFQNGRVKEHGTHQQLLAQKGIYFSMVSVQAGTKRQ

Activity: substrate [+]
Substance: GARLIC
